Results as given in patent US20240166643A1, “IMIDAZO[1,2-A]PYRIDINE COMPOUNDS AND THEIR USE IN THERAPY” (Imperial College Innovations Limited, priority 2020, published 2024).
Where two headings read alike, the source gives them in different places. Marks after values point to notes of the source that are not given here.

Key:
[1] = tested on: P. falciparum Pf3D7^0087/N9; experiment: Mouse malaria model, NODscidIL2Rγnull mice engrafted with human erythrocytes; conditions: for average parasitemia values: 50 mg/kg po per day on day 3, 4, 5 and 6 post-infection
[2] = tested on: Plasmodium falciparum strain NF54; experiment: SYBR Green assay, Plasmodium falciparum strain NF54; conditions: NF54, read-out: Pf EC50 strain NF54
[3] = molecular target: Plasmodium vivax (Pv) NMT (Plasmodium vivax (strain Salvador I), UniProt A5K1A2); experiment: biochemical
[4] = tested on: Plasmodium falciparum 3D7; experiment: SYBR Green assay, Plasmodium falciparum strain 3D7; format: cell-based; conditions: P. falciparum strain 3D7, 96 h incubation, read-out: Pf EC50 strain 3D7
[5] = in vitro; conditions: male, Sprague-Dawley, rat, pooled cryopreserved rat hepatocytes, pH 7.4
[6] = molecular target: Human NMT1 (HsNMT1) (Homo sapiens, UniProt P30419); experiment: biochemical
[7] = Rat clearance and bioavailability (iv and oral dosing); format: in vivo; conditions: male, Sprague-Dawley, plasma; for half-life: iv 1 mg/kg, read-out: Rat iv t1/2 (converted)
[8] = oral 5 mg/kg, cassette dosing of 4 compounds

Chain of Plasmodium vivax (Pv) NMT (A5K1A2 1-410): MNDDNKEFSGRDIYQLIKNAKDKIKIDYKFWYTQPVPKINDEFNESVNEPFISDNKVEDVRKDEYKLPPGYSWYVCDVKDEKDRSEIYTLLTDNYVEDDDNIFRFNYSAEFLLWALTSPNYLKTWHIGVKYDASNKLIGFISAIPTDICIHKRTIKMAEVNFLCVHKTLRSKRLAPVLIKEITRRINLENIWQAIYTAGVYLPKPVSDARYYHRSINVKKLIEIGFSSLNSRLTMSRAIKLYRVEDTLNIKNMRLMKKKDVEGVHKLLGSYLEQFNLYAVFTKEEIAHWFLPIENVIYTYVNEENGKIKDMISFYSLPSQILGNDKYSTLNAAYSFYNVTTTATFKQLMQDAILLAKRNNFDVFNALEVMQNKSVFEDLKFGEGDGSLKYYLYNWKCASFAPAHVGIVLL
Chain of Human NMT1 (HsNMT1) (P30419 whole entry, looked up): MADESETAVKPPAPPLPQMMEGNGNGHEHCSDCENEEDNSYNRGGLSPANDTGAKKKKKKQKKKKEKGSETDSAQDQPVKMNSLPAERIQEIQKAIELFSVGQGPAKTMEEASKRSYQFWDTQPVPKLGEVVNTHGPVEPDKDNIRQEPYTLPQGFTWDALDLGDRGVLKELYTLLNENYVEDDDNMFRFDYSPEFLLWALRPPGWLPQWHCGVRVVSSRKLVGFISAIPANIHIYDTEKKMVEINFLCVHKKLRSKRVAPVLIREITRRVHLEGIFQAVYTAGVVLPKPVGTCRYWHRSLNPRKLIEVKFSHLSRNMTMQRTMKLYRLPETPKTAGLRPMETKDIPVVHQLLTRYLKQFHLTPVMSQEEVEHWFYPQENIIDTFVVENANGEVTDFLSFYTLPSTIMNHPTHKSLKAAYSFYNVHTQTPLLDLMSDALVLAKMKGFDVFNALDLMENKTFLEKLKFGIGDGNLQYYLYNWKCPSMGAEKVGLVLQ

CCN(CC)CCCC(C)Nc1ccnc2cc(Cl)ccc12 (stereo not shown) [Chloroquine (CQ), chloroquine, reference compound]
average parasitemia values ([1]; day 0 post infection): 0.01%
average parasitemia values ([1]; day 3 post infection): 0.80%
average parasitemia values ([1]; day 4 post infection): 0.24%
average parasitemia values ([1]; day 5 post infection): 0.05%
average parasitemia values ([1]; day 6 post infection): 0.01%
average parasitemia values ([1]; day 7 post infection): 0.00* %

O=C(NCc1cnc2ccccn12)C1CN(c2nc(N3CCCNCC3)ncc2F)C1 [Example 6]
EC50 [2]: > 10000 nM
IC50 [3]: 130 nM

COc1cnc(N2CCCNCC2)nc1N1CC(C(=O)NCc2cnc3ccccn23)C1 [Example 19]
EC50 [2]: 3600 nM
IC50 [3]: 59 nM

O=C(NCc1cnc2cc(Cl)ccn12)C1CN(c2nc(N3CCCNCC3)ncc2Cl)C1 [Example 22]
EC50 [2]: 450 nM
IC50 [3]: 3.8 nM

O=C(NCc1cnc2ccccn12)C1CN(c2nc(N3CCNCC3)ncc2Cl)C1 [Example 25]
EC50 [2]: 1090 nM
IC50 [3]: 15 nM

C[C@H]1CN(c2ncc(F)c(N3CC(C(=O)NCc4cnc5ccccn45)C3)n2)CCN1 [Example 26]
EC50 [2]: > 2330 nM
IC50 [3]: 240 nM

C[C@H]1CN(c2ncc(Cl)c(N3CC(C(=O)NCc4cnc5ccccn45)C3)n2)CCN1 [Example 27]
EC50 [2]: 2820 nM
IC50 [3]: 37 nM

CC1CN(c2ncc(F)c(N3CC(C(=O)NCc4cnc5ccccn45)C3)n2)CCN1 (stereo not shown) [Example 28]
EC50 [2]: 3040 nM
IC50 [3]: 95 nM

COc1cnc(N2CCN[C@H](C)C2)nc1N1CC(C(=O)NC(C)(C)c2cnc3ccccn23)C1 [Example 36]
EC50 [2]: 12 nM
IC50 [3]: 6.2 nM

COc1cnc(N2CCN[C@@H](C)C2)nc1N1CC(C(=O)NC(C)(C)c2cnc3ccccn23)C1 [Example 39]
EC50 [2]: 85 nM
IC50 [3]: 12 nM

C[C@@H]1CN(c2ncc(F)c(N3CC(C(=O)NC(C)(C)c4cnc5ccccn45)C3)n2)C[C@H](C)N1 [Example 44]
EC50 [4]: 540 nM
IC50 [3]: 32 nM
half-life at 1 µM [5]: > 3 h
IC50 [6]: 120 nM

Cc1ccc2ncc(C(C)(C)NC(=O)C3CN(c4nc(N5CCN(C)CC5)ncc4F)C3)n2c1 [Example 60]
EC50 [4]: 240 nM
IC50 [3]: 110 nM
half-life at 1 µM [5]: 2.41 h

CN1CCN(c2ncc(F)c(N3CC(C(=O)NC(C)(C)c4cnc5c(F)cccn45)C3)n2)CC1 [Example 61]
EC50 [4]: 260 nM
IC50 [3]: 13 nM
half-life at 1 µM [5]: > 3 h

CN1CCN(c2ncc(F)c(N3CC(C)(C(=O)NC(C)(C)c4cnc5ccccn45)C3)n2)CC1 [Example 65]
EC50 [4]: > 1000 nM
IC50 [3]: 90 nM
half-life at 1 µM [5]: 2.41 h

Cc1cnc(N2CCN(C)CC2)nc1N1CC(C(=O)NC(C)(C)c2cnc3ccccn23)C1 [Example 66]
EC50 [4]: 320 nM
IC50 [3]: 29 nM
half-life at 1 µM [5]: > 3 h

Cc1ccc2ncc(C(C)(C)NC(=O)C3CN(c4nc(N5CCN(C)CC5)ncc4Cl)C3)n2c1 [Example 67]
EC50 [4]: 120 nM
IC50 [3]: 5.6 nM
half-life at 1 µM [5]: > 3 h

CCN1CCN(c2ncc(Cl)c(N3CC(C(=O)NC(C)(C)c4cnc5ccccn45)C3)n2)CC1 [Example 70]
EC50 [4]: 410 nM
IC50 [3]: 8.6 nM
half-life at 1 µM [5]: > 3 h

CC(C)N1CCN(c2ncc(Cl)c(N3CC(C(=O)NC(C)(C)c4cnc5ccccn45)C3)n2)CC1 [Example 71]
EC50 [4]: 560 nM
IC50 [3]: 11 nM
half-life at 1 µM [5]: > 3 h
IC50 [6]: 72 nM

COCCN1CCN(c2ncc(Cl)c(N3CC(C(=O)NC(C)(C)c4cnc5ccccn45)C3)n2)CC1 [Example 72]
half-life ([7]; cassette dosing of 4 compounds): 2.7 h
bioavailability [7, 8]: 34%
EC50 [4]: > 590 nM
IC50 [3]: 7.7 nM
half-life at 1 µM [5]: > 3 h
IC50 [6]: 82 nM

CN1CCN(c2ncc(Cl)c(N3CC(C(=O)N(C)C(C)(C)c4cnc5ccccn45)C3)n2)CC1 [Example 73]
half-life ([7]; cassette dosing of 4 compounds): 3.6 h
bioavailability [7, 8]: 65%
EC50 [4]: 810 nM
half-life at 1 µM [5]: > 3 h

CC1CN(c2ncc(Cl)c(N3CC(C(=O)N(C)C(C)(C)c4cnc5ccccn45)C3)n2)CCN1C (stereo not shown) [Example 74]
half-life ([7]; administered as a single compound): 2.2 h
bioavailability ([7]; oral 10 mg/kg, administered as a single compound): 28%
EC50 [4]: 120 nM
half-life at 1 µM [5]: > 3 h

CN1CCN(c2ncc(Cl)c(N3CCC(C(=O)NC(C)(C)c4cnc5ccccn45)CC3)n2)CC1 [Example 77]
EC50 [4]: > 1000 nM
IC50 [3]: 74 nM
half-life at 1 µM [5]: 1.49 h

CN1CCN(c2ncc(F)c(N3CC(C(=O)N(C)C(C)(C)c4cnc5ccccn45)C3)n2)CC1 [Example 78]
half-life ([7]; cassette dosing of 4 compounds): 2.3 h
bioavailability [7, 8]: 73%
EC50 [4]: > 1000 nM
IC50 [3]: 120 nM
half-life at 1 µM [5]: > 3 h
IC50 [6]: 400 nM

COCC1CN(c2ncc(Cl)c(N3CC(C(=O)NC(C)(C)c4cnc5ccccn45)C3)n2)CCN1C (stereo not shown) [Example 80]
EC50 [4]: 97 nM
IC50 [3]: 7.9 nM
half-life at 1 µM [5]: 0.743 h
IC50 [6]: 23 nM

C[C@@H]1CN(c2ncc(F)c(N3CC(C(=O)NC(C)(C)c4cnc5ccccn45)C3)n2)CCN1C [Example 84, 1-{2-[(3R)-3,4-dimethylpiperazin-1-yl]-5-fluoropyrimidin-4-yl}-N-(2-{imidazo[1,2-a]pyridin-3-yl}propan-2-yl)azetidine-3-carboxamide]
EC50 [4]: 34 nM
IC50 [3]: 4.6 nM
half-life at 1 µM [5]: 2.41 h
IC50 [6]: 33 nM

COc1cnc(N2CCN(C)[C@@H](C)C2)nc1N1CC(C(=O)NC(C)(C)c2cnc3ccccn23)C1 [Example 85, 1-{2-[(3S)-3,4-dimethylpiperazin-1-yl]-5-methoxypyrimidin-4-yl}-N-(2-{imidazo[1,2-a]pyridin-3-yl}propan-2-yl)azetidine-3-carboxamide]
EC50 [4]: 14 nM
IC50 [3]: 8 nM
half-life at 1 µM [5]: > 3 h
IC50 [6]: 6.3 nM

C[C@@H]1CN(c2ncc(Cl)c(N3CC(C(=O)NC(C)(C)c4cnc5ccccn45)C3)n2)C[C@H](C)N1C [Example 89, 1-{5-chloro-2-[(3R,5S)-3,4,5-trimethylpiperazin-1-yl]pyrimidin-4-yl}-N-(2-{imidazo[1,2-a]pyridin-3-yl}propan-2-yl)azetidine-3-carboxamide]
EC50 [4]: 88 nM
IC50 [3]: 12 nM
half-life at 1 µM [5]: > 3 h
IC50 [6]: 27 nM

C[C@@H]1CN(c2ncc(F)c(N3CC(C(=O)NC(C)(C)c4cnc5ccccn45)C3)n2)C[C@H](C)N1C [Example 90, 1-{5-fluoro-2-[(3R,5S)-3,4,5-trimethylpiperazin-1-yl]pyrimidin-4-yl}-N-(2-{imidazo[1,2-a]pyridin-3-yl}propan-2-yl)azetidine-3-carboxamide]
EC50 [4]: 300 nM
IC50 [3]: 19 nM
half-life at 1 µM [5]: > 3 h
IC50 [6]: 94 nM

C[C@H]1CN(c2ncc(Cl)c(N3CC(C(=O)NC(C)(C)c4cnc5ccccn45)C3)n2)C[C@H](C)N1C [Example 95, 1-{5-chloro-2-[(3S,5S)-3,4,5-trimethylpiperazin-1-yl]pyrimidin-4-yl}-N-(2-{imidazo[1,2-a]pyridin-3-yl}propan-2-yl)azetidine-3-carboxamide]
EC50 [4]: 150 nM
IC50 [3]: 34 nM
half-life at 1 µM [5]: 1.51 h
IC50 [6]: 17 nM

CC1CN(c2ncc(F)c(N3CC(C(=O)NC(C)(C)c4cnc5ccccn45)C3)n2)C[C@H](C)N1C (stereo partly drawn) [Example 96, 1-{5-fluoro-2-[(3S,5S)S-3,4,5-trimethylpiperazin-1-yl]pyrimidin-4-yl}-N-(2-{imidazo[1,2-a]pyridin-3-yl}propan-2-yl)azetidine-3-carboxamide]
EC50 [4]: > 910 nM
IC50 [3]: 130 nM
half-life at 1 µM [5]: > 3 h
IC50 [6]: 31 nM

C[C@H]1CN(c2ncc(Cl)c(N3CCC(C(=O)NC(C)(C)c4cnc5ccccn45)CC3)n2)CCN1C [Example 101, 1-{5-chloro-2-[(3S)-3,4-dimethylpiperazin-1-yl]pyrimidin-4-yl}-N-(2-{imidazo[1,2-a]pyridin-3-yl}propan-2-yl)piperidine-4-carboxamide]
half-life ([7]; cassette dosing of 4 compounds): 5.4 h
bioavailability [7, 8]: 32%
EC50 [4]: > 1000 nM
IC50 [3]: 33 nM
half-life at 1 µM [5]: 1.74 h
IC50 [6]: 310 nM

C[C@H]1CN(C)CCN1c1ncc(Cl)c(N2CC(C(=O)N(C)C(C)(C)c3cnc4ccccn34)C2)n1 [Example 107, 1-{5-chloro-2-[(2S)-2,4-dimethylpiperazin-1-yl]pyrimidin-4-yl}-N-(2-{imidazo[1,2-a]pyridin-3-yl}propan-2-yl)-N-methylazetidine-3-carboxamide]
half-life ([7]; cassette dosing of 4 compounds): 1.7 h
bioavailability [7, 8]: 37%
EC50 [4]: 140 nM

C[C@H]1CN(C)CCN1c1ncc(F)c(N2CC(C(=O)N(C)C(C)(C)c3cnc4ccccn34)C2)n1 [Example 108, 1-{2-[(2S)-2,4-dimethylpiperazin-1-yl]-5-fluoropyrimidin-4-yl}-N-(2-{imidazo[1,2-a]pyridin-3-yl}propan-2-yl)-N-methylazetidine-3-carboxamide]
EC50 [4]: 200 nM
half-life at 1 µM [5]: 0.967 h

O=C(NCc1nnc2ccccn12)C1CN(c2nc(N3CCCNCC3)ncc2Cl)C1 [Example 112]
EC50 [2]: > 10000 nM
IC50 [6]: 319 nM

CCN(CC)CCCC(C)Nc1ccnc2cc(Cl)ccc12 (stereo not shown) [chloroquine, reference compound]
mice / smears parasite free ([1]; 4×50 mg/kg p.o., day 7): parasite-free
